Test results published in PubChem BioAssay AID1259411 (Chemical Carcinogenesis Research Information System (CCRIS), 2018).
Activity calls are given as the source filed them. The rule behind the calls is not given here.

Tested on: rodent carcinogenicity bioassays, tumor incidence
Test: CCRIS carcinogenicity studies
Outline: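 Archive of carcinogenicity, mutagenicity, tumor promotion and tumor inhibition results drawn from journals, NCI reports and other sources, expert-reviewed; covers 1985-2011 and is no longer updated.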

For `c1ccc2c(c1)ccc1c3ccccc3ccc21`, the carcinogen call (Species: MOUSE, Route: DERMAL, Tumor Site: Type of Lesion: INTEGUMENTARY SYSTEM (SKIN)) was “active; positive”, the carcinogen call (Species: MOUSE, Strain/Sex: ICR/FEMALE, Route: DERMAL, Dose: 0, 0.1 MG, 3/WK FOR 17 MO, Tumor Site: Type of Lesion: INTEGUMENTARY SYSTEM (SKIN): CARCINOMA) was “active; positive” and the carcinogen call (Species: MOUSE, Strain/Sex: ICR/FEMALE, Route: INTRAPERITONEAL, Dose: 0, 6.3 UG TOTAL DOSE (0.9 UG/5 µL, 1.8 UG/10 µL, 3.6 UG/20 µL DMSO ON DAYS 1, 8 AND 15), 210 UG TOTAL DOSE (30 UG/5 µL,, Dose: 0, 6.3 UG TOTAL DOSE (0.9 UG/5 µL, 1.8 UG/10 µL, 3.6 UG/20 µL DMSO ON DAYS 1, 8 AND 15), 210 UG TOTAL DOSE (30 UG/5 µL) was “inactive; negative”. For the same compound, the carcinogen call (Species: MOUSE, Strain/Sex: ICR/MALE, Route: INTRAPERITONEAL, Dose: 0, 6.3 UG TOTAL DOSE (0.9 UG/5 µL, 1.8 UG/10 µL, 3.6 UG/20 µL DMSO ON DAYS 1, 8 AND 15), 210 UG TOTAL DOSE (30 UG/5 µL,, Dose: 0, 6.3 UG TOTAL DOSE (0.9 UG/5 µL, 1.8 UG/10 µL, 3.6 UG/20 µL DMSO ON DAYS 1, 8 AND 15), 210 UG TOTAL DOSE (30 UG/5 µL) was “inactive; negative” and the carcinogen call (Species: RAT, Strain/Sex: OSBORNE-MENDEL/FEMALE, Route: INTRAPULMONARY IMPLANT, Dose: 0, 1, 3 MG IN BEESWAX AND TRIOCTANOIN IMPLANTED IN LUNG (STUDY DURATION: 141 WK), Dose: 0, 1, 3 MG IN BEESWAX AND TRIOCTANOIN IMPLANTED IN LUNG (STUDY DURATION: 141 WK), Tumor Site: Type of Lesion: LUNG: CARCINOMA) was “active; positive”.

With `O=[N+]([O-])c1ccc(-c2cscn2)o1` the carcinogen call (Species: RAT, Strain/Sex: SPRAGUE-DAWLEY/FEMALE, Route: ORAL, Dose: 0, 1540 PPM IN DIET FOR 46 WK (TOTAL DOSE: 42 MMOL/RAT) (STUDY DURATION: 68 WK), Tumor Site: Type of Lesion: MAMMARY GLAND: FIBROADENOMA, FORESTOMACH: SQUAMOUS CELL CARCINOMA) was “active; positive”.

In the case of `Brc1cc(Br)c2cccnc2c1`, the carcinogen call (Species: RAT, Strain/Sex: F344/FEMALE, Route: ORAL, Dose: 0.1% IN DIET FOR 2 YR) is reported as “inactive; negative”.

In the case of `O=[N+]([O-])C1=Cc2cccc3cccc(c23)O1`, the carcinogen call (Species: RAT, Strain/Sex: WISTAR/MALE, Route: SUBCUTANEOUS, Dose: 0, 0.5 MG IN DMSO 1/WK FOR DURATION OF STUDY (TOTAL DOSE: 0; 19.5 MG) (STUDY DURATION: 271 D), Dose: 0, 0.5 MG IN DMSO 1/WK FOR DURATION OF STUDY (TOTAL DOSE: 0; 19.5 MG) (STUDY DURATION: 271 D), Tumor Site: Type of Lesion: INJECTION SITE: FIBROSARCOMA) is reported as “active; positive”.

`CS(=O)(=O)OCCCCOS(C)(=O)=O` was tested, and the carcinogen call (Species: MOUSE, Route: INTRAVENOUS, Tumor Site: Type of Lesion: OVARIES, THYMUS GLAND) was “active; positive”.

For `CON(C)C(=O)Nc1ccc(Cl)c(Cl)c1`, the carcinogen call (Species: Mouse, Strain/Sex: CD-1/Female (80/Group), Route: Oral, Dose: 0, 50, 150, 1500 ppm of 97% linuron in diet for 24 mo, study duration 24 mo, Dose: 0, 50, 150, 1500 ppm of 97% linuron in diet for 24 mo, study duration 24 mo, Tumor Site: Type of Lesion: Liver: hepatocellular adenomas (high dose only)) was “active; positive”, the carcinogen call (Species: Mouse, Strain/Sex: CD-1/Male (80/Group), Route: Oral, Dose: 0, 50, 150, 1500 ppm of 97% linuron in diet for 24 mo, study duration 24 mo, Dose: 0, 50, 150, 1500 ppm of 97% linuron in diet for 24 mo, study duration 24 mo) was “inactive; negative” and the carcinogen call (Species: Rat, Strain/Sex: Charles River CD/Female (70/Group), Route: Oral, Dose: 0, 50, 125, 625 ppm 97% linuron in diet for 24 mo, study duration 24 mo, Dose: 0, 50, 125, 625 ppm 97% linuron in diet for 24 mo, study duration 24 mo) was “inactive; negative”. For the same compound, the carcinogen call (Species: Rat, Strain/Sex: Charles River CD/Male (70/Group), Route: Oral, Dose: 0, 50, 125, 625 ppm 97% linuron in diet for 24 mo, study duration 24 mo, Dose: 0, 50, 125, 625 ppm 97% linuron in diet for 24 mo, study duration 24 mo, Tumor Site: Type of Lesion: Testes: Interstitial cell adenoma) was “active; positive” and the carcinogen call (Species: Rat, Strain/Sex: Crl:CD (SD)BR /Male (25/Group), Route: Oral, Dose: 0 (control diet), control diet for 18 mo followed by 625 ppm linuron for 6 mo, control diet for 1 yr followed by 625 ppm, Dose: 0 (control diet), control diet for 18 mo followed by 625 ppm linuron for 6 mo, control diet for 1 yr followed by 625 ppm, Tumor Site: Type of Lesion: Testes: interstitial cell tumors (0/25, 2/25 (6-mo. feed), 6/25 (12 mo feed))) was “active; positive”.

In the case of `CC(=O)N(O)c1ccc2ccc3cccc4ccc1c2c34`, the carcinogen call (Species: RAT, Strain/Sex: STRAIN-CD/FEMALE, Route: INTRAPERITONEAL, Dose: 0, 67 UMOL/KG BW IN DMSO 3/WK FOR 4 WK (STUDY DURATION: 61 WK)) is reported as “inactive; negative” and the carcinogen call (Species: RAT, Strain/Sex: STRAIN-CD/FEMALE, Route: INTRAPERITONEAL, Dose: 0, 67 UMOL/KG/BW IN 25 UMOL/ML DMSO 3/WK FOR 4 WK (TOTAL DOSE: 0; 119 UMOL) ADMINISTERED TO WEANLING RATS (STUDY DURATIO, Dose: 0, 67 UMOL/KG/BW IN 25 UMOL/ML DMSO 3/WK FOR 4 WK (TOTAL DOSE: 0; 119 UMOL) ADMINISTERED TO WEANLING RATS (STUDY DURATIO) is reported as “inactive; negative”.
